Here are results for 13 compounds from patent US11739098B2 (BRISTOL-MYERS SQUIBB COMPANY, priority 2017, dated 2023).

Assay type in all cases: cell-based
The target of one assay is T1, human TLR8 (Homo sapiens, UniProt Q9NR97).
T1 construct: host or cells: HEK-Blue cells (HEK293-derived reporter line)
T1 sequence (Q9NR97 27-1041): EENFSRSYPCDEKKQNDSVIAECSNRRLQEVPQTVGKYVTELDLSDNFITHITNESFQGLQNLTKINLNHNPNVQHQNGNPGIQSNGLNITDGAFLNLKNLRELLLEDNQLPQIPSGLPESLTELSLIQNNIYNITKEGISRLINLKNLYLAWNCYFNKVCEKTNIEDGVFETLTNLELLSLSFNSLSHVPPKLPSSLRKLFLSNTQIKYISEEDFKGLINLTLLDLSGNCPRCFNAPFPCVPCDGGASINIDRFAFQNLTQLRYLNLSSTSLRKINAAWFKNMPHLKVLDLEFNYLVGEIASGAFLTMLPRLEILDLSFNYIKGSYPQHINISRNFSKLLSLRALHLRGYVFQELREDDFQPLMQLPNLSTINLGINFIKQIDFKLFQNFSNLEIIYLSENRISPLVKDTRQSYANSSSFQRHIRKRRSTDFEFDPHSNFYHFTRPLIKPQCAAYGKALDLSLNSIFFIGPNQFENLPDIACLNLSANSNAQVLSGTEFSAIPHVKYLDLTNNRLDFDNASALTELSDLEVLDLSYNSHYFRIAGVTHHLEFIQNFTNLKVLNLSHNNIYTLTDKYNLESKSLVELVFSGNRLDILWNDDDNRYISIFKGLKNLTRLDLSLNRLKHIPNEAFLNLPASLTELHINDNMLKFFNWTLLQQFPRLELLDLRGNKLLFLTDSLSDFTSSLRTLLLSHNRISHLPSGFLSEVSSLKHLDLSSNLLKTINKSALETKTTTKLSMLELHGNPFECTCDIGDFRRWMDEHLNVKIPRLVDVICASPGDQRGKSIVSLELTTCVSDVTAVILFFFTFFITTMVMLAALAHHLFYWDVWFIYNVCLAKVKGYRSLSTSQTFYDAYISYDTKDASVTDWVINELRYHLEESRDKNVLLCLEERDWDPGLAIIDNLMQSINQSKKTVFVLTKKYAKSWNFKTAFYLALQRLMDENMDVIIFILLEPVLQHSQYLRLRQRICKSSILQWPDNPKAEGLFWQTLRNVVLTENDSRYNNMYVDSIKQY
As to the kind of experiment: TLR8 inhibition reporter assay (HEK-Blue cells, SEAP reporter, R848 stimulation). The settings on record: HEK-Blue cells overexpressing human TLR8, SEAP reporter, R848 15.9 μM. A digest of the protocol: (§1)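 Percent inhibition of agonist-induced SEAP secretion in HEK-Blue cells after 22 h at 37 °C. Stimuli: 7.5 μM gardiquimod, 15.9 μM R848, 5 nM ODN2006 for TLR7, TLR8 and TLR9, added after 30 min compound exposure over a 0.05 nM–50 μM range.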

Another assay has as its target T2, human TLR7 (Homo sapiens, UniProt Q9NYK1).
T2 construct: host or cells: HEK-Blue cells (HEK293-derived reporter line)
T2 sequence (Q9NYK1 27-1049): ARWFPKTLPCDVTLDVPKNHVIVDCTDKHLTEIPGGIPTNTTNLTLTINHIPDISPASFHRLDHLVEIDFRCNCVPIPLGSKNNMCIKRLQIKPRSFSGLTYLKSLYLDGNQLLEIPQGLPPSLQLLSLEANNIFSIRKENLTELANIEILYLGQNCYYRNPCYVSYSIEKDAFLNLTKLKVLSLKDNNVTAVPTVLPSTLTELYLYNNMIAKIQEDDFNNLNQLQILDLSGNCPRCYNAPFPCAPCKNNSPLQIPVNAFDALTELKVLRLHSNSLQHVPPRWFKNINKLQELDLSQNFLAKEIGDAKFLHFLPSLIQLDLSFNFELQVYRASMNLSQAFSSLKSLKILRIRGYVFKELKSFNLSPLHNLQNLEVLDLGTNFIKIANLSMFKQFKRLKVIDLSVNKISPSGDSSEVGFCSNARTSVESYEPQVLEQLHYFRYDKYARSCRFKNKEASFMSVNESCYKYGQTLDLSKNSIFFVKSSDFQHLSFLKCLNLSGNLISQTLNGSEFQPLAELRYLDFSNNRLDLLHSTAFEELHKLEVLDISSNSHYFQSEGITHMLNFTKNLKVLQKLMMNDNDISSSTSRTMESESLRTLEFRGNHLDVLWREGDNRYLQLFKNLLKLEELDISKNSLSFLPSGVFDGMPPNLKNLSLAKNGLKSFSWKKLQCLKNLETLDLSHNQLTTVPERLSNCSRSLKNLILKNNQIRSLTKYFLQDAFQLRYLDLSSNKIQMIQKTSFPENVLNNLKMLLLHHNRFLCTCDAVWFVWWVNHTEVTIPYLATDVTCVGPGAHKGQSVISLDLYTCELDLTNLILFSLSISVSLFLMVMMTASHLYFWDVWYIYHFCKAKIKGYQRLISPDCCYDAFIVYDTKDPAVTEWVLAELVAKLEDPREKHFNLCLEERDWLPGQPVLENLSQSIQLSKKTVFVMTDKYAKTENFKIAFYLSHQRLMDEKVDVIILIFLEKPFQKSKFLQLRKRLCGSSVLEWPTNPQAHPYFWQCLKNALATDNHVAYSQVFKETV
As to the kind of experiment: TLR7 inhibition reporter assay (HEK-Blue cells, SEAP reporter, gardiquimod stimulation). Particulars: HEK-Blue cells overexpressing human TLR7, SEAP reporter, gardiquimod 7.5 μM. A digest of the protocol: as §1
(In a reporter assay the amount or activity of a reporter protein is the signal.)

A further assay deals with T3, human TLR9 (Homo sapiens, UniProt Q9NR96).
T3 construct: host or cells: HEK-Blue cells (HEK293-derived reporter line)
T3 sequence (Q9NR96 26-1032): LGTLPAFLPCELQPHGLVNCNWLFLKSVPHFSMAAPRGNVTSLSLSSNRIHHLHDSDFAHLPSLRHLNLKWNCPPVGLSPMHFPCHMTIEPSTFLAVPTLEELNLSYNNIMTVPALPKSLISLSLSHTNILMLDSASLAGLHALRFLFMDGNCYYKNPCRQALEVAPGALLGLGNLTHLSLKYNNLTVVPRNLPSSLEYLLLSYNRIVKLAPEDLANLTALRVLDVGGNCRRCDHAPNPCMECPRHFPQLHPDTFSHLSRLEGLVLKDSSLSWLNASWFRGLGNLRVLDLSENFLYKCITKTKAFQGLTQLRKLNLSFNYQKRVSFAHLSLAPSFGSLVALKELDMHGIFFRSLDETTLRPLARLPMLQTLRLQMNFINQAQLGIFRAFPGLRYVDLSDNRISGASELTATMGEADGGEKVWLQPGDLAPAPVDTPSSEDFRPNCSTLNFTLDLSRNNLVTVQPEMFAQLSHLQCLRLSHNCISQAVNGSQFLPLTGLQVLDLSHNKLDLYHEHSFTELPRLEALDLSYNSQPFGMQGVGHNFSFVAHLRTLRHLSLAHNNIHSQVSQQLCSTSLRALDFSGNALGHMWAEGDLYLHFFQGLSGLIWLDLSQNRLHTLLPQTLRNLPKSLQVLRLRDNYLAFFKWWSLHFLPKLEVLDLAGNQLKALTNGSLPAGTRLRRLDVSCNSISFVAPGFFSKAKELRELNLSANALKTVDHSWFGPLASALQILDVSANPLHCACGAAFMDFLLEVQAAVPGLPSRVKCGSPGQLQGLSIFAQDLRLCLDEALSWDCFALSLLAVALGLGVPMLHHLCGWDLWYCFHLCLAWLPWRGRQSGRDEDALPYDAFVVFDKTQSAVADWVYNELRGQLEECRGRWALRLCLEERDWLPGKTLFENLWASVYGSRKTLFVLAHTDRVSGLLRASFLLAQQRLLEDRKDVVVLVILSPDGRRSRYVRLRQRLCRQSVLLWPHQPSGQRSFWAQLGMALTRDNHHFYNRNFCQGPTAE
In words: TLR9 inhibition reporter assay (HEK-Blue cells, SEAP reporter, ODN2006 stimulation). The settings on record: HEK-Blue cells overexpressing human TLR9, SEAP reporter, ODN2006 5 nM. Put shortly:
as §1

For `CCOc1cc(-c2[nH]c3ccc(C4CCN(C(=O)CN(C)C)CC4)cc3c2C(C)C)cc2nc(C)nn12` [Example 497, 2-(dimethylamino)-1-(4-(2-(5-ethoxy-2-methyl-[1,2,4]triazolo[1,5-a]pyridin-7-yl)-3-isopropyl-1H-indol-5-yl)piperidin-1-yl)ethan-1-one], the IC50 – broadly, the midpoint of a concentration-inhibition curve – against human TLR8 was < 0.1 µM; against human TLR7 it was < 0.1 µM; against human TLR9, 1 to 50 µM.

`Cc1cc(-c2[nH]c3ccc(C4CCN(CC(=O)N(C)C)CC4)cc3c2C(C)C)cn2nncc12` [Example 307, 2-(4-(3-isopropyl-2-(4-methyl-[1,2,3]triazolo [1,5-a]pyridin-6-yl)-1H-indol-5-yl)piperidin-1-yl)-N,N-dimethylacetamide]: the IC50 against human TLR8 lay within 0.1 to 1 µM; against human TLR7 it was 0.1 to 1 µM; on human TLR9, 1 to 50 µM.

For the compound `CCc1c(-c2ccnc3[nH]ncc23)[nH]c2ccc(C3CCN(Cc4coc(C)n4)CC3)cc12` [Example 917, 4-((4-(3-ethyl-2-(1H-pyrazolo[3,4-b]pyridin-4-yl)-1H-indol-5-yl)piperidin-1-yl)methyl)-2-methyloxazole], the IC50 on human TLR8 is < 0.1 µM; on human TLR7, 0.1 to 1 µM; at human TLR9 it was 1 to 50 µM.

Regarding `CCN(CC)CCN1CCC(c2ccc3[nH]c(-c4ccnc5[nH]ncc45)c(C(C)C)c3c2)CC1` [Example 661, N,N-diethyl-2-(4-(3-isopropyl-2-(1H-pyrazolo[3,4-b]pyridin-4-yl)-1H-indol-5-yl)piperidin-1-yl)ethan-1-amine], the IC50 at human TLR8 is < 0.1 µM; against human TLR7, < 0.1 µM; against human TLR9, 0.1 to 1 µM.

As to `CNc1c[nH]c2nccc(-c3[nH]c4ccc(C5CCNCC5)cc4c3C)c12` [Example 210, N-methyl-4-(3-methyl-5-(piperidin-4-yl)-1H-indol-2-yl)-1H-pyrrolo[2,3-b]pyridin-3-amine], the IC50 against human TLR8, on human TLR7 and against human TLR9 was 1 to 50 µM each time.

With `CC(C)c1c(-c2ccn3nncc3c2)[nH]c2ccc(C3CCNCC3)cc12` [Example 81, 5-(3-isopropyl-5-(piperidin-4-yl)-1H-indol-2-yl)-[1,2,3]triazolo[1,5-a]pyridine], the half-inhibitory concentration (IC50) against human TLR8 is 0.1 to 1 µM; against human TLR7 it was < 0.1 µM; against human TLR9, 1 to 50 µM.

For `CNC(=O)CN1CCC(c2ccc3[nH]c(-c4cc(C)c5nn(C)cc5c4)c(C(C)C)c3c2)CC1` [Example 378, 2-(4-(2-(2,7-dimethyl-2H-indazol-5-yl)-3-isopropyl-1H-indol-5-yl)piperidin-1-yl)-N-methylacetamide], the IC50 was 0.1 to 1 µM against human TLR8, < 0.1 µM at human TLR7 and 1 to 50 µM against human TLR9.

For the compound `Cc1cc(-c2[nH]c3ccc(C4CCN(CCS(C)(=O)=O)CC4)cc3c2C(C)C)cc2cnnn12` [Example 795, 5-(3-isopropyl-5-(1-(2-(methylsulfonyl)ethyl)piperidin-4-yl)-1H-indol-2-yl)-7-methyl-[1,2,3]triazolo[1,5-a]pyridine], the IC50 against human TLR8 is < 0.1 µM; against human TLR7, < 0.1 µM; on human TLR9, 1 to 50 µM.

As for `Cc1c(-c2ncnc3[nH]cnc23)[nH]c2ccc(C3CCN(C4CCN(C(C)C)CC4)CC3)cc12` [Example 815, 6-(5-(1′-isopropyl-[1,4′-bipiperidin]-4-yl)-3-methyl-1H-indol-2-yl)-9H-purine], the IC50 at human TLR8 was < 0.1 µM; against human TLR7, 1 to 50 µM; at human TLR9 it was < 0.1 µM.

For `Cc1cn2cc(-c3[nH]c4ccc(C5CCN(C(C)C)CC5)cc4c3C(C)C)ccc2n1` [Example 945, 6-(3-isopropyl-5-(1-isopropylpiperidin-4-yl)-1H-indol-2-yl)-2-methylimidazo[1,2-a]pyridine], the values for the IC50 at human TLR8, against human TLR7 and against human TLR9 were 0.1 to 1 µM, < 0.1 µM and 0.1 to 1 µM, respectively.

As to `CCc1c(-c2ccnc3[nH]ncc23)[nH]c2ccc(C3CCN(Cc4[nH]cnc4C)CC3)cc12` [Example 916, 4-(3-ethyl-5-(1-((4-methyl-1H-imidazol-5-yl)methyl)piperidin-4-yl)-1H-indol-2-yl)-1H-pyrazolo[3,4-b]pyridine], the IC50 at human TLR8, at human TLR7 and on human TLR9 was 0.1 to 1 µM in each case.

Take `Cc1nc2c(-c3[nH]c4ccc(C5CCNCC5)cc4c3C)ccnc2[nH]1` [Example 232, 2-methyl-7-(3-methyl-5-(piperidin-4-yl)-1H-indol-2-yl)-3H-imidazo[4,5-b]pyridine]: the IC50 was in the range of 1 to 50 µM against human TLR8, 1 to 50 µM against human TLR7 and 0.1 to 1 µM against human TLR9.

As for `Cc1c(-c2[nH]c3ccc(C4CCN(C5COC5)CC4)cc3c2C(C)C)nn2ncnc2c1C` [Example 730, 6-(3-isopropyl-5-(1-(oxetan-3-yl)piperidin-4-yl)-1H-indol-2-yl)-7,8-dimethyl-[1,2,4]triazolo[1,5-b]pyridazine], the IC50 on human TLR8 was < 0.1 µM; at human TLR7, < 0.1 µM; against human TLR9, 1 to 50 µM.
